Experimental findings from patent US20060057181A1, “Method for determining the gastric evacuation using a 13c-labelled test meal” (priority 2002, published 2006) are described below.

This series is described as follows: 13C-octanoic acid breath test of gastric emptying: 13CO2 excretion in exhaled respiratory air measured by IRMS after test meal. The procedure:
The thus formed ^13CO2 is then measured in the exhaled respiratory air by means of IRMS. IRMS (isotope ratio mass spectrography) has in the meantime become the most sensitive and best method for determining ^13CO2 in the exhaled respiratory air.
Therefore, the sampling and optimum calculation take three to four hours. The interval for sampling is optimal at 15 min.
Further, the patient need not sit calmly between the measuring devices for radioactivity. Rather, it is sufficient if they blow samples of their respiratory air into collecting devices every 12 minutes. For example, the so-called vacutainerss are particularly suitable for this purpose. These samples of the exhaled respiratory air may then be measured and evaluated in a central laboratory with a correspondingly sensitive IRMS equipment.

Some results are limits rather than exact numbers.

`CCCCCCC[13C](=O)O` [^13C-octanoic acid]: the “maximum of 13CO2 excretion” value runs as follows: (normal gastric emptying (patient No. 1), free 13C-octanoic acid bound to egg yolk, oral test meal, exhaled air, IRMS) > 2.9 h; (somewhat faster gastric emptying (patient No. 5)) > 2.9 h; (very delayed gastric emptying (patient No. 4)) < 2.5 h.
